Assay results reported in PubChem BioAssay AID743506 (Broad Institute, 2014).
The source made the active and inactive calls.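 How the source made its calls: active means compounds that block the bursicon-driven reporter signal with IC50 below 35000 nM; inactive means the rest.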

Molecular target: Bursicon receptor (LGR2/rickets), Drosophila melanogaster
Experiment: inhibition of bursicon-stimulated LGR2 cAMP signaling – cell-based, HEK293, CRE-luciferase, beta-gal normalized, dry powder, set 3, dose response (AID 743506)
Conditions: 4 h

Row | Structure (SMILES) | IC50
1 | C[C@@H]1CCCCO[C@H](CN(C)C(=O)Nc2ccc(F)cc2)[C@H](C)CN([C@@H](C)CO)C(=O)c2cc(NC(=O)C3CCCCC3)ccc2O1 | > 35 µM (inactive)
2 | C[C@H](CO)N1C[C@H](C)[C@H](CN(C)C(=O)Nc2ccc3c(c2)OCO3)OCCCC[C@H](C)Oc2ccc(NC(=O)C3CCCCC3)cc2C1=O | < 35 µM

The remaining lines, values ahead:

Row | IC50 | Structure (SMILES)
3 | < 35 µM | C[C@H](CO)N1C[C@H](C)[C@H](CN(C)C(=O)Nc2ccccc2)OCCCC[C@H](C)Oc2ccc(NC(=O)C3CCCCC3)cc2C1=O
4 | < 35 µM | C[C@H](CO)N1C[C@H](C)[C@H](CN(C)C(=O)Nc2ccc(F)cc2)OCCCC[C@H](C)Oc2ccc(NC(=O)C3CCCCC3)cc2C1=O
5 | < 35 µM | COc1ccc(NC(=O)N(C)C[C@@H]2OCCCC[C@H](C)Oc3ccc(NC(=O)C4CCCCC4)cc3C(=O)N([C@H](C)CO)C[C@@H]2C)cc1
